What follows are molecules tested against MYT1 protein (Homo sapiens (Human), UniProt Q99640) (assay: Test for binding to ATP binding site of MYT1 (Kinase Tracer 178 / Eu-Anti-GST antibody TR-FRET)). Settings: ATP binding site of MYT1, 30 minutes at room temperature.
Sequence of MYT1 protein (Q99640 whole entry): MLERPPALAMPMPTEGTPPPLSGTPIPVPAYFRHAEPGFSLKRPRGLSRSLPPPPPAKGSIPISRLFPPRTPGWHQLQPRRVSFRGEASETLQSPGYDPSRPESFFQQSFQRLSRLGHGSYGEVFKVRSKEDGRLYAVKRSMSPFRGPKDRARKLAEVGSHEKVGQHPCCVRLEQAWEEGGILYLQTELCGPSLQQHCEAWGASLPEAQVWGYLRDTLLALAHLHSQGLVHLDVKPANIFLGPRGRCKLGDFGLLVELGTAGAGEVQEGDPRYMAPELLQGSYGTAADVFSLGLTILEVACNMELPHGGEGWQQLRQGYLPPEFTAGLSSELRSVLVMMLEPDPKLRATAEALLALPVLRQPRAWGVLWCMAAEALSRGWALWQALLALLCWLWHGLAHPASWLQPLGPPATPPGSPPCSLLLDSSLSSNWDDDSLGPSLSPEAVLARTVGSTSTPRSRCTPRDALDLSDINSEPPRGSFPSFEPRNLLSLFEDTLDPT
Procedure: The binding capacity of each compound to the ATP binding site of MYT1 Kinase protein was evaluated. 5× Kinase Buffer A (manufactured by Thermo Fisher Scientific Inc., PV3189) was diluted to 5 times with Milli-Q water, thereby preparing 1× Kinase Buffer. Using 1× Kinase Buffer, MYT1 protein (manufactured by Carna Biosciences, Inc.) was diluted to a concentration of 0.005 μM and Eu-Anti-GST Antibody was diluted to a concentration of 1 μM. […] To a 96 well-plate, 2.5 μL of a compound diluted with DMSO was added. […] The mixture was well mixed and then allowed to stand at room temperature for 30 minutes. Thereafter, fluorescence wavelengths of 665 nm and 615 nm generated by irradiation with excitation light of 340 nm were detected using Envision (manufactured by PerkinElmer). The proportion of Tracer bound to MYT1 protein was calculated for every condition by dividing the intensity at the fluorescence wavelength of 665 nm by the intensity at the fluorescence wavelength of 615 nm.
Nc1c(-c2c(F)ccc3[nH]ncc23)c2cc(C3CC3)c3ncccc3c2[nH]c1=O (atropisomer, axis not shown) [Compound C157, (R)-3-amino-6-cyclopropyl-4-(5-fluoro-1H-indazol-4-yl)-1H-1,7-phenanthrolin-2-one] was tested, and the IC50 was 0.31 µM. In the case of Nc1c(-c2c(F)ccc3[nH]ncc23)c2cc(C3CC3)c3ncccc3c2[nH]c1=O (atropisomer, axis not shown) [Compound C158, (S)-3-amino-6-cyclopropyl-4-(5-fluoro-1H-indazol-4-yl)-1H-1,7-phenanthrolin-2-one], the IC50 is reported as 0.0019 µM. In the case of CC(C)Oc1cc2c(-c3ccc(Cl)c4[nH]ncc34)c(N)c(=O)[nH]c2cc1F [Compound A1, 3-Amino-4-(7-chloro-1H-indazol-4-yl)-7-fluoro-6-propan-2-yloxy-1H-quinolin-2-one], the IC50 is reported as 0.029 µM. Work on Nc1c(-c2ccc(Cl)c3[nH]ncc23)c2cc(OCCC(F)F)c(F)cc2[nH]c1=O [Compound A2, 3-Amino-4-(7-chloro-1H-indazol-4-yl)-6-(3,3-difluoropropoxy)-7-fluoro-1H-quinolin-2-one] yielded an IC50 of 0.0093 µM. For Nc1c(-c2ccc(Cl)c3[nH]ncc23)c2cc(OCC3CC3)c(F)cc2[nH]c1=O [Compound A3, 3-Amino-4-(7-chloro-1H-indazol-4-yl)-6-(cyclopropylmethoxy)-7-fluoro-1H-quinolin-2-one], the IC50 was 0.0085 µM. With Nc1c(-c2ccc(Cl)c3[nH]ncc23)c2cc(O[C@H]3C[C@H](F)C3)c(F)cc2[nH]c1=O [Compound A4, 3-Amino-4-(7-chloro-1H-indazol-4-yl)-7-fluoro-6-((1r,3r)-3-fluorocyclobutyl)oxy-1H-quinolin-2-one] the IC50 was 0.0038 µM. N#C[C@H]1C[C@H](Oc2cc3c(-c4ccc(Cl)c5[nH]ncc45)c(N)c(=O)[nH]c3cc2F)C1 [Compound A5, (1r,3r)-3-[[3-Amino-4-(7-chloro-1H-indazol-4-yl)-7-fluoro-2-oxo-1H-quinolin-6-yl]oxy]cyclobutane-1-carbonitrile] showed an IC50 of 0.0018 µM. Nc1c(-c2ccc(Cl)c3[nH]ncc23)c2cc(OCCCF)c(F)cc2[nH]c1=O [Compound A6, 3-Amino-4-(7-chloro-1H-indazol-4-yl)-7-fluoro-6-(3-fluoropropoxy)-1H-quinolin-2-one] showed an IC50 of 0.003 µM. Nc1c(-c2ccc(Cl)c3[nH]ncc23)c2cc(OC3CCC3)c(F)cc2[nH]c1=O [Compound A7, 3-Amino-4-(7-chloro-1H-indazol-4-yl)-6-cyclobutyloxy-7-fluoro-1H-quinolin-2-one] was tested, and the IC50 was 0.0044 µM. Work on CC(C)Oc1cc2c(-c3ccc(Cl)c4[nH]ncc34)c(N)c(=O)[nH]c2cc1Cl [Compound A8, 3-Amino-7-chloro-4-(7-chloro-1H-indazol-4-yl)-6-propan-2-yloxy-1H-quinolin-2-one] yielded an IC50 of 0.023 µM. Nc1c(-c2ccc(Cl)c3[nH]ncc23)c2cc(OCCC(F)F)c(Cl)cc2[nH]c1=O [Compound A9, 3-Amino-7-chloro-4-(7-chloro-1H-indazol-4-yl)-6-(3,3-difluoropropoxy)-1H-quinolin-2-one] gave an IC50 of 0.0039 µM. Nc1c(-c2ccc(Cl)c3[nH]ncc23)c2cc(OC3CCC3)c(Cl)cc2[nH]c1=O [Compound A10, 3-Amino-7-chloro-4-(7-chloro-1H-indazol-4-yl)-6-cyclobutyloxy-1H-quinolin-2-one] was tested, and the IC50 was 0.0043 µM. Nc1c(-c2ccc(Cl)c3[nH]ncc23)c2cc(O[C@H]3C[C@H](F)C3)c(Cl)cc2[nH]c1=O [Compound A11, 3-Amino-7-chloro-4-(7-chloro-1H-indazol-4-yl)-6-((1r,3r)-3-fluorocyclobutyl)oxy-1H-quinolin-2-one] gave an IC50 of 0.0039 µM. Nc1c(-c2ccc(Cl)c3[nH]ncc23)c2cc(OCC3CC3)c(Cl)cc2[nH]c1=O [Compound A13, 3-Amino-7-chloro-4-(7-chloro-1H-indazol-4-yl)-6-(cyclopropylmethoxy)-1H-quinolin-2-one] was tested, and the IC50 was 0.018 µM. Molecule Nc1c(-c2ccc(Cl)c3[nH]ncc23)c2cc(OCCCF)c(Cl)cc2[nH]c1=O [Compound A14, 3-Amino-7-chloro-4-(7-chloro-1H-indazol-4-yl)-6-(3-fluoropropoxy)-1H-quinolin-2-one] has an IC50 of 0.0021 µM. With Cc1nc2[nH]c(=O)c(N)c(-c3ccc(Cl)c4[nH]ncc34)c2cc1O[C@H]1C[C@H](F)C1 [Compound A15, 3-Amino-4-(7-chloro-1H-indazol-4-yl)-6-((1r,3r)-3-fluorocyclobutyl)oxy-7-methyl-1H-1,8-naphthyridin-2-one] the IC50 was 0.013 µM. Work on Cc1nc2[nH]c(=O)c(N)c(-c3ccc(Cl)c4[nH]ncc34)c2cc1O[C@H]1C[C@H](C#N)C1 [Compound A16, (1r,3r)-3-[[6-Amino-5-(7-chloro-1H-indazol-4-yl)-2-methyl-7-oxo-8H-1,8-naphthyridine-3-yl]oxy]cyclobutane-1-carbonitrile] yielded an IC50 of 0.005 µM. Work on Nc1c(-c2ccc(Cl)c3[nH]ncc23)c2cc(Cl)cc(Br)c2[nH]c1=O [Compound A17, 3-Amino-8-bromo-6-chloro-4-(7-chloro-1H-indazol-4-yl)-1H-quinolin-2-one] yielded an IC50 of 0.027 µM. C#Cc1cc(Cl)cc2c(-c3ccc(Cl)c4[nH]ncc34)c(N)c(=O)[nH]c12 [Compound A18, 3-Amino-6-chloro-4-(7-chloro-1H-indazol-4-yl)-8-ethynyl-1H-quinolin-2-one] gave an IC50 of 0.087 µM. CC(C)c1cc(Cl)cc2c(-c3ccc(Cl)c4[nH]ncc34)c(N)c(=O)[nH]c12 [Compound A19, 3-Amino-6-chloro-4-(7-chloro-1H-indazol-4-yl)-8-propan-2-yl-1H-quinolin-2-one] gave an IC50 of 0.6 µM. Nc1c(-c2ccc(Cl)c3[nH]ncc23)c2cc(Cl)cc(Cl)c2[nH]c1=O [Compound A20, 3-Amino-6,8-dichloro-4-(7-chloro-1H-indazol-4-yl)-1H-quinolin-2-one] showed an IC50 of 0.012 µM. With N#Cc1cc(Cl)cc2c(-c3ccc(Cl)c4[nH]ncc34)c(N)c(=O)[nH]c12 [Compound A21, 3-Amino-6-chloro-4-(7-chloro-1H-indazol-4-yl)-2-oxo-1H-quinoline-8-carbonitrile] the IC50 was 0.02 µM. Work on CCCc1cc(Cl)cc2c(-c3ccc(Cl)c4[nH]ncc34)c(N)c(=O)[nH]c12 [Compound A22, 3-Amino-6-chloro-4-(7-chloro-1H-indazol-4-yl)-8-propyl-1H-quinolin-2-one] yielded an IC50 of 0.27 µM. C=Cc1cc(Cl)cc2c(-c3ccc(Cl)c4[nH]ncc34)c(N)c(=O)[nH]c12 [Compound A23, 3-Amino-6-chloro-4-(7-chloro-1H-indazol-4-yl)-8-ethenyl-1H-quinolin-2-one] was tested, and the IC50 was 0.034 µM. Nc1c(-c2ccc(Cl)c3[nH]ncc23)c2cc(Cl)cc(C3CC3)c2[nH]c1=O [Compound A24, 3-Amino-6-chloro-4-(7-chloro-1H-indazol-4-yl)-8-cyclopropyl-1H-quinolin-2-one] was tested, and the IC50 was 0.11 µM. For CCc1cc(Cl)cc2c(-c3ccc(Cl)c4[nH]ncc34)c(N)c(=O)[nH]c12 [Compound A25, 3-Amino-6-chloro-4-(7-chloro-1H-indazol-4-yl)-8-ethyl-1H-quinolin-2-one], the IC50 was 0.045 µM. In the case of Cc1cc(Cl)cc2c(-c3ccc(Cl)c4[nH]ncc34)c(N)c(=O)[nH]c12 [Compound A26, 3-Amino-6-chloro-4-(7-chloro-1H-indazol-4-yl)-8-methyl-1H-quinolin-2-one], the IC50 is reported as 0.011 µM. For CCc1cc2[nH]c(=O)c(N)c(-c3ccc(Cl)c4[nH]ncc34)c2cc1Cl [Compound A28, 3-Amino-6-chloro-4-(7-chloro-1H-indazol-4-yl)-7-ethyl-1H-quinolin-2-one], the IC50 was 0.047 µM. With N#Cc1cc2[nH]c(=O)c(N)c(-c3ccc(Cl)c4[nH]ncc34)c2cc1Cl [Compound A29, 3-Amino-6-chloro-4-(7-chloro-1H-indazol-4-yl)-2-oxo-1H-quinoline-7-carbonitrile] the IC50 was 0.029 µM. With CC(=O)c1ccc2[nH]c(=O)c(N)c(-c3ccc(Cl)c4[nH]ncc34)c2c1 [Compound A31, 6-Acetyl-3-amino-4-(7-chloro-1H-indazol-4-yl)-1H-quinolin-2-one] the IC50 was 0.0076 µM. For CC(O)c1ccc2[nH]c(=O)c(N)c(-c3ccc(Cl)c4[nH]ncc34)c2c1 (stereo not drawn) [Compound A32, 3-Amino-4-(7-chloro-1H-indazol-4-yl)-6-(1-hydroxyethyl)-1H-quinolin-2-one], the IC50 was 0.016 µM. For Nc1c(-c2ccc(Cl)c3[nH]ncc23)c2cc(C3CCNCC3)ccc2[nH]c1=O [Compound A33, 3-Amino-4-(7-chloro-1H-indazol-4-yl)-6-piperidin-4-yl-1H-quinolin-2-one; 2,2,2-trifluoroacetate], the IC50 was 0.013 µM. Work on CC(C)N1CCC(c2ccc3[nH]c(=O)c(N)c(-c4ccc(Cl)c5[nH]ncc45)c3c2)CC1 [Compound A34, 3-Amino-4-(7-chloro-1H-indazol-4-yl)-6-(1-propan-2-ylpiperidin-4-yl)-1H-quinolin-2-one] yielded an IC50 of 0.026 µM. For Nc1c(-c2ccc(Cl)c3[nH]ncc23)c2cc(C3CCN(C4CCC4)CC3)ccc2[nH]c1=O [Compound A35, 3-Amino-4-(7-chloro-1H-indazol-4-yl)-6-(1-cyclobutylpiperidin-4-yl)-1H-quinolin-2-one], the IC50 was 0.019 µM. For Nc1c(-c2ccc(Cl)c3[nH]ncc23)c2cc(C3CCN(C4COC4)CC3)ccc2[nH]c1=O [Compound A36, 3-Amino-4-(7-chloro-1H-indazol-4-yl)-6-[1-(oxetane-3-yl)piperidin-4-yl]-1H-quinolin-2-one], the IC50 was 0.018 µM. With Nc1c(-c2ccc(Cl)c3[nH]ncc23)c2cc(C(=O)NC3CC3)ccc2[nH]c1=O [Compound A37, 3-Amino-4-(7-chloro-1H-indazol-4-yl)-N-cyclopropyl-2-oxo-1H-quinoline-6-carboxamide] the IC50 was 0.0056 µM.
